Measured values from patent publication US8524718B2, “Heteroaromatic derivatives and their use as positive allosteric modulators of metabotropic glutamate receptors” (Addex Pharma S.A., priority 2007, dated 2013).

What was measured:
[1] = target: T1, recombinant human mGluR4a receptors (Homo sapiens, UniProt Q14833); assay: mGluR4 assay on HEK-expressing human mGluR4 (fluorescent cell based Ca2+ mobilization assay, FLIPR); settings: HEK-293 cells expressing hmGluR4; enhancement of EC25 glutamate response; mean of at least three independent experiments in duplicate; read-out: Ca^2+ Flux (mean EC50)
T1 construct: expressed in transfected cells
T1 sequence (Q14833 33-912): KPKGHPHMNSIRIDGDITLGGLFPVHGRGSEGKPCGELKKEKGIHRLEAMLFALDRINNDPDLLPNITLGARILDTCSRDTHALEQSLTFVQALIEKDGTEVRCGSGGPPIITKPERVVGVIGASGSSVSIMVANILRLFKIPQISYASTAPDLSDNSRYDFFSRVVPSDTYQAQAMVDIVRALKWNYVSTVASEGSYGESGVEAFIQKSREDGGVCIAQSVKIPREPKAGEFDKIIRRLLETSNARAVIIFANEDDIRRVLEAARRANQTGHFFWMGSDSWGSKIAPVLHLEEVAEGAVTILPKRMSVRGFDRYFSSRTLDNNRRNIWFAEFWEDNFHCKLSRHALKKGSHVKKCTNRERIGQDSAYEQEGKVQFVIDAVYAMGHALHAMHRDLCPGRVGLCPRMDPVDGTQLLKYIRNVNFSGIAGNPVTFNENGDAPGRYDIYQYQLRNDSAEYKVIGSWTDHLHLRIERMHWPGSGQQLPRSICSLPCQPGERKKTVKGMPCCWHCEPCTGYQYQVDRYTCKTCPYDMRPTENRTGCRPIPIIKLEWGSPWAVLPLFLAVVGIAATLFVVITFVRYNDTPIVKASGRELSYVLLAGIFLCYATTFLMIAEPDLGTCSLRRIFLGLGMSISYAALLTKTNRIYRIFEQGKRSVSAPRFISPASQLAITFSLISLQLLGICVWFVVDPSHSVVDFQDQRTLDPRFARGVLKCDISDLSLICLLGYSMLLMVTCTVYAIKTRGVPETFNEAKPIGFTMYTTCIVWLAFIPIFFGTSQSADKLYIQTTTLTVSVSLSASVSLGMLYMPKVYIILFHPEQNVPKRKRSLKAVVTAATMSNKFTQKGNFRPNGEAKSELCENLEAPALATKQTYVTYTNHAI
Excerpt: mGluR4 Assay on HEK-Expressing Human mGluR4 The compounds of the present invention are positive allosteric modulators of mGluR4 receptor. Their activity was examined on recombinant human mGluR4a receptors by detecting changes in intracellular Ca^2+ concentration, using the fluorescent Ca^2+-sensitive dye Fluo-4-(AM) and a Fluorometric Imaging Plate Reader (FLIPR, Molecular Devices, Sunnyvale, Calif.) The cDNA encoding the human metabotropic glutamate receptor (hmGluR4), (accession number NM_000841.1, NCBI Nucleotide database browser), was subcloned into an expression vector containing also the hygromycin resistance gene. In parallel, the cDNA encoding a G protein allowing redirection of the activation signal to intracellular calcium flux was subcloned into a different expression vector containing also the puromycin resistance gene. Transfection of both these vectors into HEK293 cells with PolyFect reagent (Qiagen) according to supplier's protocol, and hygromycin and puromycin treatment allowed selection of antibiotic resistant cells which had integrated stably one or more copies of the plasmids. Positive cellular clones expressing hmGluR4 were identified in a functional assay measuring changes in calcium fluxes in response to glutamate or selective known mGluR4 orthosteric agonists and antagonists. HEK-293 cells expressing hmGluR4 were maintained in media containing DMEM, dialyzed Fetal Calf Serum (10%), Glutamax™ (2 mM), Penicillin (100 units/mL), Streptomycin (100 μg/mL), Geneticin (100 μg/mL) and Hygromycin-B (40 μg/mL) and puromycin (1 μg/mL) at 37° C./5% CO2. Human mGluR4 HEK-293 cells were plated out 24 hours prior to FLIPR^384 assay in black-walled, clear-bottomed, poly-L-ornithine-coated 384-well plates at a density of 25,000 cells/well in a glutamine/glutamate free DMEM medium containing foetal bovine serum (10%), penicillin (100 units/mL) and streptomycin (100 μg/mL) at 37 C/5% CO2. On the day of the assay, the medium was aspirated and the cells were loaded with a 3 μM solution of Fluo-4-AM (LuBioScience, Lucerne, Switzerland) in 0.03% pluronic acid. After 1 hour at 37 C/5% CO2, the non incorporated dye was removed by washing cell plate with the assay buffer and the cells were left in the dark at room temperature for six hours before testing. All assays were performed in a pH 7.4 buffered-solution containing 20 mM HEPES, 143 mM NaCl, 6 mM KCl, 1 mM MgSO4, 1 mM CaCl2, 0.125 mM sulfapyrazone, 0.1% glucose. After 10 s of basal fluorescence recording, various concentrations of the compounds of the invention were added to the cells. Changes in fluorescence levels were first monitored for 180 s in order to detect any agonist activity of the compounds. Then the cells were stimulated by an EC25 glutamate concentration for an additional 110 s in order to measure enhancing activities of the compounds of the invention. EC25 glutamate concentration is the concentration giving 25% of the maximal glutamate response. The concentration-response curves of representative compounds of the present invention were generated using the Prism GraphPad software (Graph Pad Inc, San Diego, USA). The curves were fitted to a four-parameter logistic equation: (Y=Bottom+(Top−Bottom)/(1+10^((Log EC50−X)*Hill Slope) allowing the determination of EC50 values. The Table 5 below represents the mean EC50 obtained from at least three independent experiments of selected molecules performed in duplicate.

EC50 [1] [nM]	melting point	Compound
< 500	294 to 296 °C	Cc1sc(Nc2ccccn2)nc1-c1cnn(C(N)=O)c1 [Compound 1-27, 4-(5-Methyl-2-(pyridin-2-ylamino)thiazol-4-yl)-1H-pyrazole-1-carboxamide]
< 500	291 to 294 °C	Cc1sc(Nc2ccccn2)nc1-c1cn[nH]c1 [Compound 1-16, 5-Methyl-4-(1H-pyrazol-4-yl)-N-(pyridin-2-yl)thiazol-2-amine]
< 500	295 °C (dec.)	Clc1cccc(Nc2nc(-c3cn[nH]c3)cs2)n1 [Compound 1-49, N-(6-Chloropyridin-2-yl)-4-(1H-pyrazol-4-yl)thiazol-2-amine]
500 to 1000	250 °C (dec.)	FC(F)(F)c1sc(Nc2ccccn2)nc1-c1cn[nH]c1 [Compound 1-54, 4-(1H-Pyrazol-4-yl)-N-(pyridin-2-yl)-5-(trifluoromethyl)thiazol-2-amine]
< 500	290 °C (dec.)	Cc1sc(Nc2cccc(Cl)n2)nc1-c1cn[nH]c1 [Compound 1-31, N-(6-Chloropyridin-2-yl)-5-methyl-4-(1H-pyrazol-4-yl)thiazol-2-amine]
< 500	300 °C (dec.)	Cc1sc(Nc2ncccc2F)nc1-c1cn[nH]c1 [Compound 1-46, N-(3-Fluoropyridin-2-yl)-5-methyl-4-(1H-pyrazol-4-yl)thiazol-2-amine]
< 500	281 to 285 °C	Fc1cccc(Nc2nc(-c3cn[nH]c3)cs2)n1 [Compound 1-51, N-(6-Fluoropyridin-2-yl)-4-(1H-pyrazol-4-yl)thiazol-2-amine]
< 500	–	Fc1sc(Nc2ccccn2)nc1-c1cn[nH]c1 [Compound 1-56, 5-Fluoro-4-(1H-pyrazol-4-yl)-N-(pyridin-2-yl)thiazol-2-amine]
< 500	306 °C	Cc1cccc(Nc2nc(-c3cn[nH]c3)c(C)s2)n1 [Compound 1-18, 5-Methyl-N-(6-methylpyridin-2-yl)-4-(1H-pyrazol-4-yl)thiazol-2-amine]
< 500	282 to 285 °C	Clc1sc(Nc2ccccn2)nc1-c1cn[nH]c1 [Compound 1-32, 5-Chloro-4-(1H-pyrazol-4-yl)-N-(pyridin-2-yl)thiazol-2-amine]
< 500	250 °C (dec.)	N#Cc1sc(Nc2ccccn2)nc1-c1cn[nH]c1 [Compound 1-47, 4-(1H-Pyrazol-4-yl)-2-(pyridin-2-ylamino)thiazol-5-carbonitrile]
< 500	259 to 260 °C	Cc1cccc(Nc2nc(-c3cn[nH]c3)cs2)n1 [Compound 1-53, N-(6-Methylpyridin-2-yl)-4-(1H-pyrazol-4-yl)thiazol-2-amine]
< 500	290 °C (dec.)	Cc1sc(Nc2cccc(F)n2)nc1-c1cn[nH]c1 [Compound 1-33, N-(6-Fluoropyridin-2-yl)-5-methyl-4-(1H-pyrazol-4-yl)thiazol-2-amine]

The remaining lines, values behind:

Compound	EC50 [1] [nM]	melting point
CC(=O)n1cc(-c2nsc(Nc3ccccc3)n2)c(C)n1 [Compound 1-2, 1-(3-Methyl-4-(5-(phenylamino)-1,2,4-thiadiazol-3-yl)-1H-pyrazol-1-yl)ethanone]	1000 to 10000	204 to 208 °C
CCc1n[nH]cc1-c1csc(Nc2ccccn2)n1 [Compound 1-61, 4-(3-Ethyl-1H-pyrazol-4-yl)-N-(pyridin-2-yl)thiazol-2-amine]	< 500	196 to 198 °C
c1ccc(Nc2nc(-c3cn[nH]c3)ns2)cc1 [Compound 1-6, N-Phenyl-3-(1H-pyrazol-4-yl)-1,2,4-thiadiazol-5-amine]	1000 to 10000	192 °C
CCCc1n[nH]cc1-c1nsc(Nc2ccccc2)n1 [Compound 1-8, N-Phenyl-3-(3-propyl-1H-pyrazol-4-yl)-1,2,4-thiadiazol-5-amine]	1000 to 10000	170 to 172 °C
CC(C)c1n[nH]cc1-c1csc(Nc2ccccn2)n1 [Compound 1-13, 4-(3-Isopropyl-1H-pyrazol-4-yl)-N-(pyridin-2-yl)thiazol-2-amine]	1000 to 10000	195 °C
CCCc1n[nH]cc1-c1nsc(Nc2ccccn2)n1 [Compound 1-9, 3-(3-Propyl-1H-pyrazol-4-yl)-N-(pyridin-2-yl)-1,2,4-thiadiazol-5-amine]	1000 to 10000	248 to 250 °C
c1ccc(Nc2nc(-c3cn[nH]c3)cs2)nc1 [Compound 1-25, N-(4-(1H-pyrazol-4-yl)thiazol-2-yl)pyridin-2-amine]	< 500	261 to 262 °C
Cc1n[nH]cc1-c1nsc(Nc2ccccn2)n1 [Compound 1-5, 3-(3-Methyl-1H-pyrazol-4-yl)-N-(pyridin-2-yl)-1,2,4-thiadiazol-5-amine]	1000 to 10000	> 280 °C
c1ccc(Nc2nc(-c3c[nH]nc3C3CC3)cs2)nc1 [Compound 1-60, 4-(3-Cyclopropyl-1H-pyrazol-4-yl)-N-(pyridin-2-yl)thiazol-2-amine]	< 500	211 to 213 °C
Cc1n[nH]cc1-c1csc(Nc2ccccc2)n1 [Compound 1-7, 4-(3-Methyl-1H-pyrazol-4-yl)-N-phenylthiazol-2-amine]	1000 to 10000	200 to 202 °C
Cc1n[nH]cc1-c1csc(Nc2ccccn2)n1 [Compound 1-11, 4-(3-Methyl-1H-pyrazol-4-yl)-N-(pyridin-2-yl)thiazol-2-amine]	< 500	255 to 257 °C
Cc1n[nH]cc1-c1nsc(Nc2ccccc2Cl)n1 [Compound 1-3, N-(2-Chlorophenyl)-3-(3-methyl-1H-pyrazol-4-yl)-1,2,4-thiadiazol-5-amine]	1000 to 10000	180 to 182 °C
Cc1n[nH]cc1-c1nsc(Nc2ccccc2)n1 [Compound 1-1, 3-(3-methyl-1H-pyrazol-4-yl)-N-phenyl-1,2,4-thiadiazol-5-amine]	1000 to 10000	–
Cc1n[nH]cc1-c1nsc(Nc2ccccc2F)n1 [Compound 1-4, N-(2-Fluorophenyl)-3-(3-methyl-1H-pyrazol-4-yl)-1,2,4-thiadiazol-5-amine]	500 to 1000	–
FC(F)(F)c1n[nH]cc1-c1nsc(Nc2ccccn2)n1 [Compound 1-10, N-(Pyridin-2-yl)-3-(3-(trifluoromethyl)-1H-pyrazol-4-yl)-1,2,4-thiadiazol-5-amine]	500 to 1000	> 260 °C
FC(F)(F)c1n[nH]cc1-c1csc(Nc2ccccn2)n1 [Compound 1-12, N-(Pyridin-2-yl)-4-(3-(trifluoromethyl)-1H-pyrazol-4-yl)thiazol-2-amine]	500 to 1000	250 °C
Cc1n[nH]cc1-c1nsc(Nc2cccc(F)n2)n1 [Compound 1-43, N-(6-Fluoropyridin-2-yl)-3-(3-methyl-1H-pyrazol-4-yl)-1,2,4-thiadiazol-5-amine]	< 500	> 300 °C
